According to patent US20190387748A1, “COMPOSITIONS AND RELATED METHODS FOR AGRICULTURE” (priority 2017, published 2019):
Entries after “also recorded” stand apart in the source; their conditions may differ.

Experiments:
[1] = tested on: Acyrthosiphon pisum aphids; assay: Aphid developmental stage monitoring; format: in vivo
Experimental: (§1) In addition, the developmental stage (1st, 2nd, 3rd, 4th, 5th instar) was determined daily throughout the experiment. Once an aphid reached the 4th instar stage, they were given their own artificial feeding system in a deep petri dish so that fecundity could be monitored once they reached adulthood.
(§2) Each treatment group received approximately the same number of individuals from each of the collection plant. For each treatment, 20 aphids were placed onto each leaf. Aphids were monitored daily for survival and dead aphids were removed when they were discovered. In addition, the developmental stage (1st, 2nd, 3rd, 4th, 5th instar, and 5R, representing a reproducing 5th instar) was determined daily throughout the experiment. Pictures of aphids were taken throughout the experiment to evaluate size differences between treatment groups.
(Vroma vicia faba from Johnny's Selected Seeds) in a climate-controlled incubator (16 h light/8 h dark photoperiod; 60±5% RH; 25±2° C.). Prior to being used for aphid rearing, fava bean plants were grown in potting soil at 24° C. with 16 h of light and 8 h of darkness. To limit maternal effects or health differences between plants, 5-10 adults from different plants were distributed among 10 two-week-old plants, and allowed to multiply to high density for 5-7 days. […] Aphids were monitored daily for survival and dead aphids were removed from the deep petri dish when they were discovered. In addition, the developmental stage (1st, 2nd, 3rd, 4th, 5th and 5R (5th that has reproduced) instar) was determined daily throughout the experiment.
In addition, the developmental stage (1st, 2nd, 3rd, 4th, 5th, and 5R (5th that has reproduced) instar) was determined daily throughout the experiment.
In addition, the developmental stage (1st, 2nd, 3rd, 4th, 5th, and 5R (5th instar aphids that are reproducing) instar) was determined daily throughout the experiment.
In addition, the developmental stage (1st, 2nd, 3rd, 4th, and 5th instar) was determined daily throughout the experiment.
as §1, with “5th, and 5R (5th that has reproduced)” for “5th”
For each treatment, 30 aphids were placed onto each leaf in triplicate. […] Aphids were monitored daily for survival and dead aphids were removed from the deep petri dish when they were discovered. In addition, the developmental stage (1st, 2nd, 3rd, 4th, 5th, and 5R (5th instar aphids that are reproducing) instar) was determined daily throughout the experiment. […]

[2] = tested on: Acyrthosiphon pisum aphids; assay: Aphid survival monitoring; format: in vivo
Text: For each treatment, 33 aphids were placed onto each leaf. Artificial diet feeding systems were changed every 2-3 days throughout the experiment. Aphids were monitored daily for survival and dead aphids were removed from the deep petri dish housing the artificial feeding system when they were discovered.
as §2
(Vroma vicia faba from Johnny's Selected Seeds) in a climate-controlled incubator (16 h light/8 h dark photoperiod; 60±5% RH; 25±2° C.). Prior to being used for aphid rearing, fava bean plants were grown in potting soil at 24° C. with 16 h of light and 8 h of darkness. To limit maternal effects or health differences between plants, 5-10 adults from different plants were distributed among 10 two-week-old plants, and allowed to multiply to high density for 5-7 days. For experiments, first and second instar aphids were collected from healthy plants and divided into 2 different treatment groups: 1) negative control (leaf injected with water plus blue food coloring) and 2) leaf injected with 50 μg/ml rifampicin in water plus blue food coloring. Each treatment group received approximately the same number of individuals from each of the collection plants. For treatment, rifampicin stock solution (25 mg/ml in 100% methanol) was diluted to 50 μg/ml in water plus blue food coloring. The solution was then placed into a 1.5 ml Eppendorf tube with a fava bean stem perfused with the solutions and the opening of the tube was closed using parafilm. This feeding system was then placed into a deep petri dish (Fisher Scientific, Cat# FB0875711) and aphids were applied to the leaves of the plant. For each treatment, 74-81 aphids were placed onto each leaf. The feeding systems were changed every 2-3 days throughout the experiment. Aphids were monitored daily for survival and dead aphids were removed from the deep petri dish when they were discovered. In addition, the developmental stage (1st, 2nd, 3rd, 4th, 5th and 5R (5th that has reproduced) instar) was determined daily throughout the experiment.
For each treatment, 49-50 aphids were placed onto each leaf. The feeding systems were changed every 2-3 days throughout the experiment. Aphids were monitored daily for survival and dead aphids were removed from the deep petri dish when they were discovered.
For each treatment, 76-80 aphids were placed onto each leaf. The feeding systems were changed every 2-3 days throughout the experiment. Aphids were monitored daily for survival and dead aphids were removed from the deep petri dish when they were discovered.
For each treatment, 50-51 aphids were placed onto each leaf. The feeding systems were changed every 2-3 days throughout the experiment. Aphids were monitored daily for survival and dead aphids were removed from the deep petri dish when they were discovered.
For each treatment, 56-59 aphids were placed onto each leaf. The feeding systems were changed every 2-3 days throughout the experiment. Aphids were monitored daily for survival and dead aphids were removed from the deep petri dish when they were discovered.
For each treatment, 57-59 aphids were placed onto each leaf. The feeding systems were changed every 2-3 days throughout the experiment. Aphids were monitored daily for survival and dead aphids were removed from the deep petri dish when they were discovered.
For each treatment, 15-87 aphids were placed onto each leaf. Artificial diet feeding systems were changed every 2-3 days throughout the experiment.

[3] = tested on: Buchnera; assay: qPCR of Buchnera/aphid DNA copy numbers (symbiont titer); format: in vivo, Buchnera aphidicola
Experimental: (§3) After 7 days of treatment, DNA was extracted from multiple aphids from each treatment group. Briefly, the aphid body surface was sterilized by dipping the aphid into a 6% bleach solution for approximately 5 seconds. Aphids were then rinsed in sterile water and DNA was extracted from each individual aphid using a DNA extraction kit (Qiagen, DNeasy kit) according to manufacturer's instructions. DNA concentration was measured using a nanodrop nucleic acid quantification, and Buchnera and aphid DNA copy numbers were measured by qPCR.
After 6 days of treatment, DNA was extracted from multiple aphids from each treatment group and qPCR for quantifying Buchnera levels was done as described in the previous Example.
as §3, with “8” for “7”
as §3, with “After 8” for “After 7”, “from the remaining” for “from multiple”, “aphids in” for “aphids from”
as §3, with “Briefly,” for “After 7 days of treatment, DNA was extracted from multiple aphids from each treatment group. Briefly,”
as §3, with “Briefly,” for “After 7 days of treatment, DNA was extracted from multiple aphids from each treatment group. Briefly,”
as §3, with “3” for “7”, “the remaining living” for “multiple”
as §3, with “After 5” for “After 7”, “from the remaining” for “from multiple”, “aphids in” for “aphids from”
At 5 days post-treatment, DNA was extracted from several aphids in each treatment group. Briefly, the aphid body surface was sterilized by dipping the aphid into a 6% bleach solution for approximately 5 seconds.

[4] = tested on: Sitophilus zeamais weevils; assay: Weevil survival monitoring; format: in vivo; settings: adult S. zeamais mating pairs; 250 μg/ml or 2.5 mg/ml ciprofloxacin; 18 days
[5] = tested on: Sitophilus zeamais weevils; assay: Assessment of offspring: dissection of corn kernels (F1 weevil development); format: in vivo; settings: after 25 days
[6] = tested on: Escherichia coli DH5α; settings: kernels soaked in 2.5 or 0.25 mg/ml ciprofloxacin; overnight
Experimental: The kernels were soaked for 1.5 hours as described herein. After soaking, kernels were air dried and assayed to determine whether the antibiotic was able to coat and penetrate the kernel. To test this, a concentrated sample of Escherichia coli DH5α in water was spread onto 5 Luria Broth (LB) plates. […] The plates were incubated overnight at 37 degrees C. and bacterial growth and/or zone(s) of inhibition were assessed the next day.
A concentrated culture of E. coli was then spread onto LB plates and one of the coated kernels was then placed onto the center of the plate. The plates were incubated overnight, and bacterial growth was assessed the next day.
The plates were incubated overnight and the next day bacterial growth was assessed.

[7] = tested on: Sitophilus zeamais weevils; assay: Emergence of F1 weevils (fecundity); settings: 2.5 mg/ml ciprofloxacin; till day 43
[8] = synthetic cationic NCR peptides; cited from earlier work
[9] = tested on: gram-negative and gram-positive bacteria as well as fungi; settings: cited from earlier work

CC(=O)CCC(=O)O [levulinic acid]
Aphid development ([1]; 0.03 or 0.3% levulinic acid): delayed aphid development | Aphid mortality ([2]; 0.03% levulinic acid, 11-day experiment): higher mortality compared to control treated aphids, although the difference did not reach statistical significance | Insect survival ([2]; 0.03 or 0.3% levulinic acid): decrease in insect survival | Aphid survival ([2]; 0.3% levulinic acid, 11-day experiment): survival was significantly less | Fold less Buchnera/aphid DNA copies vs control ([3]; 0.03 or 0.3% levulinic acid in water, 7 days of treatment): ~6 fold | Buchnera/aphid ratio ([3]; 0.03 or 0.3% levulinic acid, seven and eleven days post-treatment): reduced endosymbiotic Buchnera

Cc1cc2c(C(C)C)c(O)c(O)c(C=O)c2c(O)c1-c1c(C)cc2c(C(C)C)c(O)c(O)c(C=O)c2c1O [gossypol, gossypol acetic acid]
Time by which all aphids succumbed to treatment ([2]; 0.5% gossypol): ≤ 4 days | Time of treatment after which aphids began dying ([2]; 0.5% gossypol): 2 days | Fold less Buchnera/aphid DNA copies vs control ([3]; 0.25 and 0.5% of gossypol, through plants, 5 or 13 days): ~4 fold

O=C(O)c1cn(C2CC2)c2cc(N3CCNCC3)c(F)cc2c1=O [ciprofloxacin]
Weevil survival [4]: all weevils remained alive for the course of the experiment | Number of offspring found in dissected corn kernels ([5]; 250 ug/ml ciprofloxacin): 13 | Offspring in the larval form ([5]; 250 ug/ml ciprofloxacin): 38% | Number of offspring found in dissected corn kernels ([5]; 2.5 mg/ml ciprofloxacin): 20 | Offspring in the larval form ([5]; 2.5 mg/ml ciprofloxacin): 65% | E. coli growth on plates with entire soaked corn kernels [6]: no bacteria grew | F1 offspring emerged [7]: much less offspring that emerged

O=C/C=C/c1ccccc1 [trans-cinnemaldehyde]
Aphid developmental stage ([1]; LSR-1 1st and 2nd instar, 0.05%, 0.5%, 5% trans-cinnemaldehyde in water, leaf perfusion and through plants, by 3 days): delayed aphid development; also recorded: none of the aphids matured past the second instar stage | Aphid survival rate ([2]; 0.05%, 0.5%, and 5% trans-cinnemaldehyde): dose-dependent decrease in survival; also recorded: significantly lower | Symbiont titer (Buchnera DNA to aphid DNA) ([3]; 0.05%, 0.5%, and 5% trans-cinnemaldehyde, 3 days post-treatment): reduced endosymbiotic Buchnera | Fold less Buchnera/aphid DNA copies vs control ([3]; 0.5 and 5% of trans-cinnemaldehyde, 3 days): ~870 fold | Buchnera/aphid DNA copies ([3]; lowest concentration of trans-cinnemaldehyde (0.5%), 3 days): high ratios of Buchnera/aphid DNA copies

NCR335: cationic nodule C-rich peptide (RQMIILRLNTTFRPLNFKMLRFWGQ)
pl [8]: 11.22 | Antimicrobial activity [9]: effective against gram-negative and gram-positive bacteria as well as fungi
